Experimental data: publication PMC9045277, “Quercetin Reduces the Virulence of S. aureus by Targeting ClpP to Protect Mice from MRSA-Induced Lethal Pneumonia” (Microbiology Spectrum, 2022)
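Note: ClpP peptidase activity measured as fluorescence (ex 360 nm, em 465 nm) from cleavage of Suc-LY-AMC substrate at 100 µM, 30 min at 32°C.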

These molecules were tested against T1, ClpP (Staphylococcus aureus, UniProt Q2G036) (assay: biochemical). Settings: read-out: Relative inhibition rate (%).
T1 construct: pET28a-clpP, purified from E. coli BL21(DE3)
T1 sequence (Q2G036 whole entry): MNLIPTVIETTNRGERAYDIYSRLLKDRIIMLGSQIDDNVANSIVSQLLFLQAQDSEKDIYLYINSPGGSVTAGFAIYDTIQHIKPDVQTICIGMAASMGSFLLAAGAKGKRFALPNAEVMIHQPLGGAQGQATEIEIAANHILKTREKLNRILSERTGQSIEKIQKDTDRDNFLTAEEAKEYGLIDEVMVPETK
Description: This property was exploited to screen the available laboratory library of small molecules for ClpP inhibitors. First, 10 μM ClpP and 64 μg/mL of the small molecule compound were added to a black opaque 96-well plate containing 100 μL of ClpP buffer (100 mM HEPES,100 mM NaCl) and incubated for 1 h at room temperature. Afterward, 100 μM Suc-LeuTyr-AMC (Cat number S1153, Sigma-Aldrich, St. Louis, MO, USA) was added to 96-well plates and incubated for 30 min at 32°C. Finally, the fluorescence values were detected by Infinite M200 (360 nm excitation/465 nm emission). […] Since the fluorescent substrate Suc-LY-AMC can be used to detect the activity of ClpP protein, we screened a library of natural products available in our laboratory.
Work on `O=c1c(-c2ccccc2)coc2ccccc12` [Isoflavone] yielded an inhibition at 64 µg/mL of 20.1 ± 0.73%. With `O=C1c2ccccc2C(=O)c2c(O)c(O)cc(O)c21` [Purpurin] the inhibition at 64 µg/mL was 11.6 ± 2.51%. `CC(C)=CCc1c(-c2ccc(O)cc2O)oc2c([C@H]3C=C(C)C[C@@H](c4ccc(O)cc4O)[C@@H]3C(=O)c3ccc(O)cc3O)c(O)cc(O)c2c1=O` [kuwanonG] was tested, and the inhibition at 64 µg/mL was 21.2 ± 2.56%. Molecule `O=c1c(O)c(-c2ccc(O)cc2)oc2cc(O)cc(O)c12` [Kaempferol] has an inhibition at 64 µg/mL of 44 ± 2.75%. `COc1ccc(-c2oc3c(CC=C(C)C)c(O[C@@H]4O[C@H](CO)[C@@H](O)[C@H](O)[C@H]4O)cc(O)c3c(=O)c2O[C@@H]2O[C@@H](C)[C@H](O)[C@@H](O)[C@H]2O[C@@H]2OC[C@@H](O)[C@H](O)[C@H]2O)cc1` [Epimedin B] was tested, and the inhibition at 64 µg/mL was 29.1 ± 2.01%. Molecule `C/C=C/c1cc(OC)c2c(c1)C(C)C(c1ccc(O)c(OC)c1)O2` (stereo not shown) [Dehydrodiisoeugenol] has an inhibition at 64 µg/mL of 5.3 ± 0.61%. With `COc1ccc(-c2cc(=O)c3c(O)cc(O[C@@H]4O[C@H](CO[C@@H]5O[C@@H](C)[C@H](O)[C@@H](O)[C@H]5O)[C@@H](O)[C@H](O)[C@H]4O)cc3o2)cc1O` [Diosmin] the inhibition at 64 µg/mL was 31.7 ± 0.92%. Work on `O=c1c(-c2ccc(O)cc2)coc2cc(O)cc(O)c12` [Genistein] yielded an inhibition at 64 µg/mL of 33.5 ± 0.65%. `O=c1cc(-c2ccc(O)cc2)oc2c([C@@H]3O[C@H](CO)[C@@H](O)[C@H](O)[C@H]3O)c(O)c([C@@H]3O[C@H](CO)[C@@H](O)[C@H](O)[C@H]3O)c(O)c12` [Vicenin-2] was tested, and the inhibition at 64 µg/mL was 48.2 ± 2.26%. For `COc1ccc(-c2cc(=O)c3c(OC)c(OC)c(OC)c(OC)c3o2)cc1` [Tangeretin], the inhibition at 64 µg/mL was 41.2 ± 1.53%. Molecule `C[C@@H]1O[C@@H](O[C@H]2[C@H](Oc3cc(O)c4c(=O)cc(-c5ccc(O)cc5)oc4c3)O[C@H](CO)[C@@H](O)[C@@H]2O)[C@H](O)[C@H](O)[C@H]1O` [Rhoifolin] has an inhibition at 64 µg/mL of 46.7 ± 1.3%. `O=c1c(-c2ccc(O)cc2)coc2cc(O[C@@H]3O[C@H](CO)[C@@H](O)[C@H](O)[C@H]3O)cc(O)c12` [Genistin] showed an inhibition at 64 µg/mL of 22.1 ± 0.63%. `O=c1cc(-c2ccc(O)c(O)c2)oc2cc(O)c([C@@H]3O[C@H](CO)[C@@H](O)[C@H](O)[C@H]3O)c(O)c12` [Isoorientin] gave an inhibition at 64 µg/mL of 50.2 ± 1.58%. Molecule `O=c1c(O[C@@H]2O[C@@H](CO)[C@H](O)[C@H]2O)c(-c2ccc(O)c(O)c2)oc2cc(O)cc(O)c12` [Avicularin] has an inhibition at 64 µg/mL of 46 ± 1.22%. `O=C1C[C@@H](c2ccc(O)cc2)Oc2cc(O)cc(O)c21` [Naringenin] was tested, and the inhibition at 64 µg/mL was 8.2 ± 0.24%. For `COc1ccc(-c2cc(=O)c3c(O)c(OC)c(OC)cc3o2)cc1O` [3',5-Dihydroxy-4',6,7-trimethoxyflavone], the inhibition at 64 µg/mL was 55.8 ± 2.5%. With `COc1ccc(/C=C/c2cc(O)cc(O)c2)cc1O` [Rhapontigenin] the inhibition at 64 µg/mL was 42.2 ± 2.89%. In the case of `COc1cc(O)c2c(c1)O[C@H](c1ccc(O)cc1)CC2=O` [Sakuranetin], the inhibition at 64 µg/mL is reported as 3.9 ± 1.2%. `Oc1cc2c(cc1O)[C@@H]1c3ccc(O)c(O)c3OC[C@]1(O)C2` [Hematoxylin] showed an inhibition at 64 µg/mL of 23.9 ± 2.69%. For `COc1ccc(-c2oc3c(OC)c(O)cc(O)c3c(=O)c2O)cc1` [Prudomestin], the inhibition at 64 µg/mL was 54.2 ± 4.67%. Work on `O=C1c2c(O)cc(O)cc2O[C@H](c2ccc(O)c(O)c2)[C@H]1O` [Taxifolin] yielded an inhibition at 64 µg/mL of 17.2 ± 1.2%. Work on `COc1cc(O)c2c(=O)c(O[C@@H]3O[C@H](CO)[C@@H](O)[C@H](O)[C@H]3O)c(-c3ccc(O[C@@H]4O[C@H](CO)[C@@H](O)[C@H](O)[C@H]4O)cc3)oc2c1` [Complanatuside] yielded an inhibition at 64 µg/mL of 12.3 ± 0.47%. `CCC1=C[C@@H]2CN3CCc4c([nH]c5ccccc45)[C@@](C(=O)OC)(C2)[C@@H]13` [Catharanthine] showed an inhibition at 64 µg/mL of 10.3 ± 1.62%. `COc1cc(O)c2c(=O)cc(-c3ccc(O)cc3)oc2c1` [Genkwanin] showed an inhibition at 64 µg/mL of 13.7 ± 0.58%. For `O=c1cc(-c2ccc(O)c(O)c2)oc2c([C@@H]3O[C@H](CO)[C@@H](O)[C@H](O)[C@H]3O)c(O)cc(O)c12` [Orientin], the inhibition at 64 µg/mL was 61.4 ± 1.24%. Work on `COc1ccc(-c2coc3cc(O[C@@H]4O[C@H](CO)[C@@H](O)[C@H](O)[C@H]4O)ccc3c2=O)cc1O` [Calycosin-7-glucoside] yielded an inhibition at 64 µg/mL of 4.2 ± 0.84%. `O=C(O)[C@H]1O[C@@H](Oc2cc3oc(-c4ccccc4)cc(=O)c3c(O)c2O)[C@H](O)[C@@H](O)[C@@H]1O` [Baicalin] gave an inhibition at 64 µg/mL of 27.3 ± 0.55%. `C[C@@H]1O[C@@H](OC[C@H]2O[C@@H](Oc3cc(O)c4c(=O)cc(-c5ccc(O)cc5)oc4c3)[C@H](O[C@@H]3O[C@@H](C)[C@H](O)[C@@H](O)[C@H]3O)[C@@H](O)[C@@H]2O)[C@H](O)[C@H](O)[C@H]1O` [Ligustroflavone] was tested, and the inhibition at 64 µg/mL was 26.6 ± 1.16%. With `CC(C)=CC[C@@H](O)C1=CC(=O)c2c(O)ccc(O)c2C1=O` [Shikonin] the inhibition at 64 µg/mL was 13.4 ± 1.54%. `O=c1ccc2cc(O)c(O)cc2o1` [6,7-Dihydroxycoumarin] showed an inhibition at 64 µg/mL of 19.6 ± 3.54%. With `C=C(C)[C@@H]1CCC(C)=C[C@H]1c1c(O)cc(CCCCC)cc1O` [cannabidiol] the inhibition at 64 µg/mL was 6.8 ± 2.41%. `Cc1coc2c1C(=O)C(=O)c1c-2ccc2c(C)cccc12` [Tanshinone I] was tested, and the inhibition at 64 µg/mL was 12.3 ± 1.41%. In the case of `Nc1[nH]c(=O)nc2c1ncn2[C@@H]1O[C@H](CO)[C@@H](O)[C@H]1O` [Crotonoside], the inhibition at 64 µg/mL is reported as 28.1 ± 3.17%. Work on `O=C(CCc1ccc(O)cc1)c1c(O)cc(O)cc1O[C@@H]1O[C@H](CO)[C@@H](O)[C@H](O)[C@H]1O` [Phlorizin] yielded an inhibition at 64 µg/mL of 5.3 ± 0.71%. `C/C=C(/C)C(=O)O[C@H]1[C@@H](OC(C)=O)c2c(ccc3ccc(=O)oc23)OC1(C)C` [Praeruptorin A] was tested, and the inhibition at 64 µg/mL was 37.8 ± 3.15%. Work on `CC(C)(C)[C@]1(O)C[C@@H]2OC(=O)C[C@@]23C(=O)O[C@@H]2OC(=O)[C@H](O)[C@]213` [Bilobalide] yielded an inhibition at 64 µg/mL of 17.4 ± 1.76%. `C[C@@H]1O[C@@H](O[C@H]2[C@H](Oc3cc(O)c(C(=O)CCc4ccc(O)cc4)c(O)c3)O[C@H](CO)[C@@H](O)[C@@H]2O)[C@H](O)[C@H](O)[C@H]1O` [Naringin dihydrochalcone] gave an inhibition at 64 µg/mL of 20.6 ± 0.51%. Work on `COc1cc(-c2oc3cc(O)cc(O)c3c(=O)c2O[C@@H]2O[C@H](CO[C@@H]3O[C@@H](C)[C@H](O)[C@@H](O)[C@H]3O)[C@@H](O)[C@H](O)[C@H]2O[C@@H]2O[C@@H](C)[C@H](O)[C@@H](O)[C@H]2O)ccc1O` [Typhaneoside] yielded an inhibition at 64 µg/mL of 29.7 ± 0.72%. For `COc1ccc(-c2oc3cc(OC)c(OC)c(O)c3c(=O)c2OC)cc1O` [Casticin], the inhibition at 64 µg/mL was 56.8 ± 1.22%. Molecule `C=C1CC[C@@H]2[C@](C)(CO)[C@H](O)CC[C@@]2(C)[C@@H]1C/C=C1/C(=O)OC[C@H]1O` [Andrographolide] has an inhibition at 64 µg/mL of 15.8 ± 0.72%. With `COc1cc2c(cc1O)C[C@H]1c3cc(O)c(OC)cc3CC[N+]1(C)C2` (stereo partly shown) [Phellodendrine chloride] the inhibition at 64 µg/mL was 10.2 ± 2.67%. Molecule `O=c1cc(-c2ccccc2)oc2cc(O)cc(O)c12` [Chrysin] has an inhibition at 64 µg/mL of 49 ± 3.18%. `COc1ccc(-c2oc3c(CC=C(C)C)c(O[C@@H]4O[C@H](CO)[C@@H](O)[C@H](O)[C@H]4O)cc(O)c3c(=O)c2O[C@@H]2O[C@@H](C)[C@H](O)[C@@H](O)[C@H]2O)cc1` [Icariin] gave an inhibition at 64 µg/mL of 34.6 ± 1.54%. With `C[C@@H]1O[C@@H](O[C@H]2C(=O)c3c(O)cc(O)cc3O[C@@H]2c2ccc(O)c(O)c2)[C@H](O)[C@H](O)[C@H]1O` [Astilbin] the inhibition at 64 µg/mL was 9.1 ± 2.73%. With `COc1cc(-c2oc3cc(OC)c(OC)c(O)c3c(=O)c2OC)ccc1O` [Chrysosplenetin] the inhibition at 64 µg/mL was 52.4 ± 0.36%. With `O=C1c2ccccc2C(=O)c2c1ccc(O)c2O` [Alizarin] the inhibition at 64 µg/mL was 56.6 ± 5.28%.
